We go through one compound from US10233463B2, “Neurotensin-induced tumor formation is regulated by micro RNA 133A-aftiphilin-dependent receptor recycling” (THE REGENTS OF THE UNIVERSITY OF CALIFORNIA, priority 2013, dated 2019).

One assay deals with NCM460-NTR1 cells. As to the kind of experiment: NTR1 localization and recycling by immunofluorescence. The format is cell-based, human. The settings on record: 10 nM Brefeldin A during recovery.
The next assay concerns SW480 cells. As to the kind of experiment: Anchorage-independent growth assay with Brefeldin A in the presence of NT. Type of assay: cell-based, human. As to the method:
Anchorage-independent growth assays. […] HCT-116 and SW480 cells were transfected with miR-133α or si-AFTPH 2 days prior to the assay. In addition, SW480 cells were treated with 2.5, 5, 10 μg/ml brefeldin A in the presence of 100 nM NT. Triplicates of 5,000 cells were suspended in complete growth media supplemented with 0.4% agarose [mixing 2% agarose with complete growth media in 1:4 (v/v)). Cell mixtures were layered on 0.8% agarose and fed with complete growth media supplemented with 0.4% agarose every 6-7 days. The number of colonies was counted after 15 days. Experiments were repeated 3 times. Statistical significance was calculated using the Student's t-Test.

Structures are written as SMILES.

Procedure for NCM460-NTR1 cells: Immunofluorescence. NCM460-NTR1 cells were transfected with antisense miR-133α (as-miR-133α) (Ambion) and its control using siPORTNeoFX transfection reagent (Applied Biosystems) or siRNA against AFTPH and its control (Santa Cruz) using Lipofectamine™ RNAiMAX (Invitrogen) where appropriate. […] Cells were fixed in PBS containing 4% (w/v) paraformeldehyde (pH 7.4, 20 min, 4° C.) and blocked in PBS containing 3% bovine serum and 0.1% Triton X. Cells were incubated (16 h, 4° C.) with the following antibodies (Santa Cruz): goat anti-NTR1 (1:100), goat anti-AFTPH (1:100) and rabbit anti-TGN38 (1:100). Cells were washed and incubated (2 h, room temperature) with bovine anti-goat IgG or bovine-anti-rabbit IgG conjugated to FITC or Texas Red (Santa Cruz, 1:500). […]
Image analysis protocol. Substacks of five optical sections were generated per image and were analyzed using Images J with MacBiophotonics plugins. […] Mean fluorescence intensity was measured for these two regions, representing the intracellular and cell surface associated NTR1 labeling, respectively. The relative surface and intracellular values were expressed as a ratio. […] Only cells with a defined nucleus were analyzed and only within cell comparisons were made. […]

Take `C[C@H]1CCC/C=C/[C@@H]2C[C@H](O)C[C@H]2[C@H](O)/C=C/C(=O)O1` [Brefeldin A]: the “membrane-associated NTR1 vs total cellular receptors” value in the assay with NCM460-NTR1 cells (3 h after NT stimulation) came to 57.0±2.95%; in the assay on NCM460-NTR1 cells (6 h after NT stimulation), 52.1±2.89%. Further, the “SW480 cell growth (colony formation)” value in the assay with SW480 cells (2.5, 5, 10 μg/ml) was “inhibited”. Moreover, the “reduction of NT-induced tumor colony formation” value with SW480 cells (NT 100 nM) was found to be 44.1±1.1%.
